Data on one molecule can be found in paper PMC2874894 (Investigative ophthalmology & visual science, 2009).

The test deals with rPASP (Pseudomonas aeruginosa small protease) (Pseudomonas aeruginosa, UniProt Q9I690). Kind of test: fluorescein-gelatin hydrolysis, fluorescence. Format: biochemical. The conditions noted are these: fluorescein-conjugated gelatin substrate; rPASP 10 ug; 24 h, 37 °C.

Molecules are shown by their SMILES.

Sequence of rPASP (Pseudomonas aeruginosa small protease) (Q9I690 whole entry): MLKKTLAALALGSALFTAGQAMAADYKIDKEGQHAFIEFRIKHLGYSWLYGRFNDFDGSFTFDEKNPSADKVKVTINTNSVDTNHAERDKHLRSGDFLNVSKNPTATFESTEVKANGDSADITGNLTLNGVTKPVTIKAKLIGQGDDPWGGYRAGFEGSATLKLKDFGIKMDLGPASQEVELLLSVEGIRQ

`Cc1ccc(S(=O)(=O)N[C@@H](CCCCN)C(=O)CCl)cc1` [TLCK]: the dose-dependent inhibition result was “Only TLCK demonstrated dose-dependent inhibition of rPASP activity”.
